Legend:
Type in all cases: organism-based
Phaseolus vulgaris [1] = assay: Phytotoxicity against Phaseolus vulgaris (Yellow eye dry beans) assessed as yield at 420 g a.i./ha applied pre-emergence (reference value: 2 +/- 0.1 tons/ha); settings: in vivo, other
Phaseolus vulgaris [2] = assay: Phytotoxicity against Phaseolus vulgaris (Pinto dry beans) assessed as yield at 420 g a.i./ha applied pre-emergence (reference value: 3.1 +/- 0.1 tons/ha); settings: in vivo, other
Phaseolus vulgaris [3] = assay: Phytotoxicity against Phaseolus vulgaris (Brown dry beans) assessed as yield at 420 g a.i./ha applied pre-emergence (reference value: 2.3 +/- 0.1 tons/ha); settings: in vivo, other
Phaseolus vulgaris [4] = assay: Phytotoxicity against Phaseolus vulgaris (Black dry bean) assessed as reduction in shoot dry weight applied pre-emergence relative to control; design: scale not given: the % may be the effect or the level left; settings: in vivo
Phaseolus vulgaris [5] = assay: Phytotoxicity against Phaseolus vulgaris (Kidney dry beans) assessed as plant height at 420 g a.i./ha applied pre-emergence measured at 28 days post-emergence (reference value: 33 +/- 1 cm); settings: in vivo, other, 672 h
Phaseolus vulgaris [6] = assay: Phytotoxicity against Phaseolus vulgaris (Kidney dry beans) assessed as shoot dry weight at 420 g a.i./ha applied pre-emergence measured at 42 days post-emergence (reference value: 133 +/- 8 g/m); settings: in vivo, other, 1008 h
Phaseolus vulgaris [7] = assay: Phytotoxicity against Phaseolus vulgaris (dry bean) assessed as visual crop injury at 420 g a.i./ha applied pre-emergence measured at 28 days post-emergence relative to control; settings: in vivo, other, 672 h
Phaseolus vulgaris [8] = assay: Phytotoxicity against Phaseolus vulgaris (White dry beans) assessed as yield at 420 g a.i./ha applied pre-emergence (reference value: 2.9 +/- 0.1 tons/ha); settings: in vivo, other
Phaseolus vulgaris [9] = assay: Phytotoxicity against Phaseolus vulgaris (Black dry beans) assessed as plant height at 840 g a.i./ha applied pre-emergence measured at 28 days post-emergence (reference value: 28 +/- 1 cm); settings: in vivo, other, 672 h
Phaseolus vulgaris [10] = assay: Phytotoxicity against Phaseolus vulgaris (Otebo dry beans) assessed as reduction in shoot dry weight at 840 g a.i./ha applied pre-emergence measured at 42 days post-emergence relative to control; design: scale not given: the % may be the effect or the level left; settings: in vivo, other, 1008 h
Phaseolus vulgaris [11] = assay: Phytotoxicity against Phaseolus vulgaris (Yellow eye dry beans) assessed as reduction in shoot dry weight at 840 g a.i./ha applied pre-emergence measured at 42 days post-emergence relative to control; design: scale not given: the % may be the effect or the level left; settings: in vivo, other, 1008 h
Phaseolus vulgaris [12] = assay: Phytotoxicity against Phaseolus vulgaris (Yellow eye dry beans) assessed as visual crop injury at 420 to 840 g a.i./ha applied pre-emergence measured at 28 days post-emergence relative to control; settings: in vivo, other, 672 h
Phaseolus vulgaris [13] = assay: Phytotoxicity against Phaseolus vulgaris (Yellow eye dry beans) assessed as yield at 840 g a.i./ha applied pre-emergence (reference value: 2 +/- 0.1 tons/ha); settings: in vivo, other
Phaseolus vulgaris [14] = assay: Phytotoxicity against Phaseolus vulgaris (Pinto dry beans) assessed as shoot dry weight at 840 g a.i./ha applied pre-emergence measured at 42 days post-emergence (reference value: 134 +/- 11 g/m); settings: in vivo, other, 1008 h
Phaseolus vulgaris [15] = assay: Phytotoxicity against Phaseolus vulgaris (Pinto dry beans) assessed as shoot dry weight at 420 g a.i./ha applied pre-emergence measured at 42 days post-emergence (reference value: 134 +/- 11 g/m); settings: in vivo, other, 1008 h
Phaseolus vulgaris [16] = assay: Phytotoxicity against Phaseolus vulgaris (dry beans) assessed as change in seed moisture content at 420 to 840 g a.i./ha applied pre-emergence relative to control; settings: in vivo, other
Phaseolus vulgaris [17] = assay: Phytotoxicity against Phaseolus vulgaris (Yellow eye dry beans) assessed as shoot dry weight at 420 g a.i./ha applied pre-emergence measured at 42 days post-emergence (reference value: 142 +/- 8 g/m); settings: in vivo, other, 1008 h
Phaseolus vulgaris [18] = assay: Phytotoxicity against Phaseolus vulgaris (Kidney dry beans) assessed as visual crop injury at 420 to 840 g a.i./ha applied pre-emergence measured at 28 days post-emergence relative to control; settings: in vivo, other, 672 h
Phaseolus vulgaris [19] = assay: Phytotoxicity against Phaseolus vulgaris (dry bean) assessed as visual crop injury at 840 g a.i./ha applied pre-emergence measured at 7 days post-emergence relative to control; settings: in vivo, other, 168 h
Phaseolus vulgaris [20] = assay: Phytotoxicity against Phaseolus vulgaris (Otebo dry beans) assessed as reduction in yield at 840 g a.i./ha applied pre-emergence relative to control; design: scale not given: the % may be the effect or the level left; settings: in vivo, other
Phaseolus vulgaris [21] = assay: Phytotoxicity against Phaseolus vulgaris (Brown dry beans) assessed as plant height at 840 g a.i./ha applied pre-emergence measured at 28 days post-emergence (reference value: 33 +/- 1 cm); settings: in vivo, other, 672 h
Phaseolus vulgaris [22] = assay: Phytotoxicity against Phaseolus vulgaris (White dry beans) assessed as visual crop injury at 420 to 840 g a.i./ha applied pre-emergence measured at 28 days post-emergence relative to control; settings: in vivo, other, 672 h
Phaseolus vulgaris [23] = assay: Phytotoxicity against Phaseolus vulgaris (Pinto dry beans) assessed as plant height at 420 g a.i./ha applied pre-emergence measured at 28 days post-emergence (reference value: 32 +/- 1 cm); settings: in vivo, other, 672 h
Phaseolus vulgaris [24] = assay: Phytotoxicity against Phaseolus vulgaris (Kidney dry beans) assessed as yield at 420 g a.i./ha applied pre-emergence (reference value: 1.9 +/- 0.1 tons/ha); settings: in vivo, other
Phaseolus vulgaris [25] = assay: Phytotoxicity against Phaseolus vulgaris (Black dry beans) assessed as visual crop injury at 420 to 840 g a.i./ha applied pre-emergence measured at 28 days post-emergence relative to control; settings: in vivo, other, 672 h
Phaseolus vulgaris [26] = assay: Phytotoxicity against Phaseolus vulgaris (Kidney dry beans) assessed as yield at 840 g a.i./ha applied pre-emergence (reference value: 1.9 +/- 0.1 tons/ha); settings: in vivo, other
Phaseolus vulgaris [27] = assay: Phytotoxicity against Phaseolus vulgaris (Kidney dry beans) assessed as reduction in shoot dry weight at 840 g a.i./ha applied pre-emergence measured at 42 days post-emergence relative to control; design: scale not given: the % may be the effect or the level left; settings: in vivo, other, 1008 h
Phaseolus vulgaris [28] = assay: Phytotoxicity against Phaseolus vulgaris (Otebo dry beans) assessed as plant height at 840 g a.i./ha applied pre-emergence measured at 28 days post-emergence (reference value: 31 +/- 2 cm); settings: in vivo, other, 672 h
Phaseolus vulgaris [29] = assay: Phytotoxicity against Phaseolus vulgaris (Brown dry beans) assessed as yield at 840 g a.i./ha applied pre-emergence (reference value: 2.3 +/- 0.1 tons/ha); settings: in vivo, other
Phaseolus vulgaris [30] = assay: Phytotoxicity against Phaseolus vulgaris (dry bean) assessed as visual crop injury at 420 g a.i./ha applied pre-emergence measured at 7 days post-emergence relative to control; settings: in vivo, other, 168 h
Phaseolus vulgaris [31] = assay: Phytotoxicity against Phaseolus vulgaris (Brown dry beans) assessed as shoot dry weight at 840 g a.i./ha applied pre-emergence measured at 42 days post-emergence (reference value: 123 +/- 7 g/m); settings: in vivo, other, 1008 h
Phaseolus vulgaris [32] = assay: Phytotoxicity against Phaseolus vulgaris (Brown dry beans) assessed as plant height at 420 g a.i./ha applied pre-emergence measured at 28 days post-emergence (reference value: 33 +/- 1 cm); settings: in vivo, other, 672 h
Phaseolus vulgaris [33] = assay: Phytotoxicity against Phaseolus vulgaris (Pinto dry beans) assessed as plant height at 840 g a.i./ha applied pre-emergence measured at 28 days post-emergence (reference value: 32 +/- 1 cm); settings: in vivo, other, 672 h
Phaseolus vulgaris [34] = assay: Phytotoxicity against Phaseolus vulgaris (White dry beans) assessed as plant height at 840 g a.i./ha applied pre-emergence measured at 28 days post-emergence (reference value: 31 +/- 2 cm); settings: in vivo, other, 672 h
Phaseolus vulgaris [35] = assay: Phytotoxicity against Phaseolus vulgaris (Black dry beans) assessed as reduction in shoot dry weight at 840 g a.i./ha applied pre-emergence measured at 42 days post-emergence relative to control; design: scale not given: the % may be the effect or the level left; settings: in vivo, other, 1008 h

Cc1nn(-c2cc(NS(C)(=O)=O)c(Cl)cc2Cl)c(=O)n1C(F)F [SULFENTRAZONE]
Crop_yield (Phaseolus vulgaris [1]): 2 tons/ha | Crop_yield (Phaseolus vulgaris [2]): 3.4 tons/ha | Crop_yield (Phaseolus vulgaris [3]): 2.3 tons/ha | Activity (Phaseolus vulgaris [4]): 16% | Activity (Phaseolus vulgaris [5]): 29 cm | Activity (Phaseolus vulgaris [6]): 128 g/m | Activity (Phaseolus vulgaris [7]): 7% | Crop_yield (Phaseolus vulgaris [8]): 2.4 tons/ha | Activity (Phaseolus vulgaris [9]): 21 cm | Activity (Phaseolus vulgaris [10]): 36% | Activity (Phaseolus vulgaris [11]): 40% | Activity (Phaseolus vulgaris [12]): 13.1% | Crop_yield (Phaseolus vulgaris [13]): 1.4 tons/ha | Activity (Phaseolus vulgaris [14]): 128 g/m | Activity (Phaseolus vulgaris [15]): 149 g/m | Activity (Phaseolus vulgaris [16]): Non-toxic | Activity (Phaseolus vulgaris [17]): 134 g/m | Activity (Phaseolus vulgaris [18]): 15.9% | Activity (Phaseolus vulgaris [19]): 26% | Activity (Phaseolus vulgaris [20]): 26% | Activity (Phaseolus vulgaris [21]): 28 cm | Activity (Phaseolus vulgaris [22]): 17.9% | Activity (Phaseolus vulgaris [23]): 30 cm | Crop_yield (Phaseolus vulgaris [24]): 1.9 tons/ha | Activity (Phaseolus vulgaris [25]): 16.6% | Crop_yield (Phaseolus vulgaris [26]): 1.6 tons/ha | Activity (Phaseolus vulgaris [27]): 35% | Activity (Phaseolus vulgaris [28]): 23 cm | Crop_yield (Phaseolus vulgaris [29]): 2.1 tons/ha | Activity (Phaseolus vulgaris [30]): 9% | Activity (Phaseolus vulgaris [31]): 121 g/m | Activity (Phaseolus vulgaris [32]): 31 cm | Activity (Phaseolus vulgaris [33]): 26 cm | Activity (Phaseolus vulgaris [34]): 20 cm | Activity (Phaseolus vulgaris [35]): 35%

— ChEMBL document CHEMBL3045522, “Responses of dry beans (Phaseolus vulgaris L.) to sulfentrazone” (Crop Prot, 2007)
